The source of these data is patent publication US20250382305A1 (PTC THERAPEUTICS, INC., priority 2022, published 2025).

pIC50: −log10 of the molar value.

As a reminder, the pIC50 is the negative decadic logarithm of the IC50, by convention in mol/L.

The test system of assay [1] is Total ATXN3 (tATXN3) protein. As to the kind of experiment: Endogenous Total ATXN3 (tATXN3) Protein Assay (MSD immunoassay of cell lysates). The settings on record: average IC50, total ATXN3 protein in cell lysate after 48 h with compound (Table 1). The class given is cell-based. How it is done:
Endogenous Total ATXN3 (tATXN3) Protein Assay
Meso Scale Discovery (MSD) 96-well or 384-well plates were coated overnight at 4° C. with Ataxin 3 mouse monoclonal antibody (Invitrogen, MA3-082) at a concentration of 0.5 μg/mL in PBS (30 μL per well). Plates were then washed three times with 300 μL wash buffer (0.05% TWEEN®-20, polyethylene glycol sorbitan monolaurate, in PBS) and blocked (Meso Scale Diagnostics, R93BA-1; 5% BSA in PBS) for 2 h at RT with rotational shaking and then washed three times with wash buffer.
(§1) Test compounds were serially diluted 3.16-fold in 100% DMSO to generate a 7-point concentration curve. Aliquots of 0.5 μL of diluted compounds were transferred to a 96-well flat bottom plate by a liquid handler. An aliquot of 0.5 μL DMSO was also transferred to separate wells and used as controls. Duplicate samples were set up for each compound concentration and for the DMSO control.
Cells were thawed and incubated in cell culture media (DMEM, 10% FBS, and 1% antibiotic cocktail) for 72 h. Cells were trypsinized, counted, and re-suspended to a concentration of 100,000 cells/mL in cell culture media. A 100 μL aliquot of the cell suspensions were plated at 10,000 cells per well in the compound containing 96 well microtiter plate and incubated for in a cell culture incubator (37° C., 5% CO2, 100% relative humidity). After 48 h, the medium was removed and 50-100 μL of lysis buffer (Meso Scale Diagnostics, R60TX-2) containing 1× halt protease inhibitor cocktail of (Thermo Scientific, Halt™ Protease Inhibitor Cocktail, 78430) per well was added to cells to provide a “cell lysate”. The plate was placed on a shaker at 4° C. for 30 minutes, then stored at −80° C.
Cell lysate samples (25 μL) were transferred to the antibody-coated MSD plate and incubated overnight at 4° C. After removal of the lysates, the plate was washed three times with wash buffer, and 25 μL of Ataxin 3 recombinant rabbit monoclonal antibody (Invitrogen, #702788) secondary antibody (diluted to 0.25 μg/mL in 0.05% TWEEN®-20 in blocking buffer) was added to each well and incubated with shaking for 1-2 h at room temperature. Following incubation with the secondary antibody, the wells were rinsed with wash buffer and then 25 μL of Anti Rabbit Antibody Goat SULFO-TAG Labeled (Meso Scale Diagnostics, R32AB-1) detecting antibody (diluted to […] in 0.05% TWEEN®-20 in blocking buffer) was added to each well and incubated with shaking for 1 h at room temperature. After rinsing three times with wash buffer, 150 μL of Read Buffer T with surfactant (tris-based buffer containing tripropylamine, Meso Scale Diagnostics, R92TC-1) were added to each empty well, and the plate was imaged on a SI 6000 imager (MSD) according to manufacturers' instructions provided for 96- or 384-well plates.
(§2) An average IC50>1 μM is indicated by one star (*), between >0.3 μM and ≤1 μM is indicated by two stars (**), between >0.03 μM and ≤0.3 μM is indicated by three stars (***), and ≤0.03 μM is indicated by four stars (****).

For another assay, the system named is ATXN3 pre-mRNA. As to the kind of experiment: RT-qPCR Assay to Quantify Exon 4 Skipping in ATXN3 pre-mRNA in Cells. The class given is cell-based. The settings on record: percent exon 4 skipping in ATXN3 pre-mRNA, RT-qPCR of cell lysates; average IC50. Here is the method:
RT-qPCR Assay to Quantify Exon 4 Skipping in ATXN3 pre-mRNA in Cells
as §1
Cells were thawed and incubated in cell culture media (DMEM, 10% FBS, and 1% antibiotic cocktail) for 72 h. Cells were trypsinized, counted, and re-suspended to a concentration of 100,000 cells/mL in cell culture media. A 100 μL aliquot of the cell suspensions were plated at 10,000 cells per well in the compound containing 96 well microtiter plate and incubated for in a cell culture incubator (37° C., 5% CO2, 100% relative humidity).
After 24 h, media was aspirated from the cells and 50 μL of the RCL2 lysis buffer (10 mM Tris-HCL pH 7.4, 150 mM NaCl, 0.33% IGEPAL® CA-630) was added to each well and incubated at RT for 1 min. Chilled nuclease free water (50 μL per well) was added and the plates were immediately transferred on ice. After 1 min on ice, plates were frozen at −80° C. overnight.
Preparation of RT-qPCR Reaction Mixture:
An aliquot of 2 μL/well of the cell lysates was transferred using the liquid handler to the Armadillo 384-Well PCR plate containing 8 μL/well of the RT-qPCR reaction mixture that was prepared as detailed above. The plates were then sealed with MicroAmp™ Optical Adhesive Film followed by spinning down for 1 min and placed in the CFX384 thermocycler (BioRad).
The RT-qPCR was carried out at the following temperatures for the indicated time: • Step 1: 48° C. (30 min) • Step 2: 95° C. (10 min) • Step 3: 95° C. (15 sec) • Step 4: 60° C. (1 min); then, repeated Steps 3 and 4 for a total of 40 cycles.
The percent exon 4 skipping was calculated for each dose of compound treatment using Equations 1 and 2.
Data were fit to a dose response curve and the IC50 was interpolated using XLfit® statistical and curve fitting package.
as §2

On to `N[C@H]1CCCO[C@@H]1c1sc2c(NCc3cccs3)cc(Cl)nc2c1C#CCO` (mixture of isomers) [Compound 252, 3-(2-((2R,3R)-3-aminotetrahydro-2H-pyran-2-yl)-5-chloro-7-((thiophen-2-ylmethyl)amino)thieno[3,2-b]pyridin-3-yl)prop-2-yn-1-ol and 3-(2-((2S,3S)-3-aminotetrahydro-2H-pyran-2-yl)-5-chloro-7-((thiophen-2-ylmethyl)amino)thieno[3,2-b]pyridin-3-yl)prop-2-yn-1-ol], for which the figures for the pIC50 (in assay [1]; in the assay with ATXN3 pre-mRNA) were 6.52 to 7.52 and no less than 7.52, respectively.

For the compound `N[C@@H]1CCCC[C@H]1c1sc2c(NCc3cccs3)cc(Cl)nc2c1C(F)(F)F.N[C@H]1CCCC[C@@H]1c1sc2c(NCc3cccs3)cc(Cl)nc2c1C(F)(F)F` (mixture of isomers) [Compound 356, 2-((1S,2S)-2-aminocyclohexyl)-5-chloro-N-(thiophen-2-ylmethyl)-3-(trifluoromethyl)thieno[3,2-b]pyridin-7-amine and 2-((1R,2R)-2-aminocyclohexyl)-5-chloro-N-(thiophen-2-ylmethyl)-3-(trifluoromethyl)thieno[3,2-b]pyridin-7-amine], the pIC50 (in assay [1]; in the assay with ATXN3 pre-mRNA) was 6.52 to 7.52 each time.

As to `N[C@H]1COCC[C@@H]1c1sc2c(NCc3ccco3)cc(Cl)nc2c1Br` [Compound 238, 2-((3R,4S)-3-aminotetrahydro-2H-pyran-4-yl)-3-bromo-5-chloro-N-(furan-2-ylmethyl)thieno[3,2-b]pyridin-7-amine], the figures for the pIC50 (in assay [1]; with ATXN3 pre-mRNA) were no less than 7.52 and 6.52 to 7.52, respectively.

Regarding `N[C@H]1CCCO[C@@H]1c1c(Br)c2nc(Cl)cc(NCc3cccs3)c2n1C(F)F` [Compound 281, 2-((2S,3S)-3-aminotetrahydro-2H-pyran-2-yl)-3-bromo-5-chloro-1-(difluoromethyl)-N-(thiophen-2-ylmethyl)-1H-pyrrolo[3,2-b]pyridin-7-amine], the pIC50 (in assay [1]; in the assay on ATXN3 pre-mRNA) was 6.52 to 7.52 throughout.

On to `N[C@H]1CCCCCC[C@@H]1c1cc2nc(Cl)cc(NCc3cccs3)c2s1` [Compound 103, 2-((1S,2S)-2-aminocyclooctyl)-5-chloro-N-(thiophen-2-ylmethyl)thieno[3,2-b]pyridin-7-amine], for which the pIC50 (in assay [1]; in the assay with ATXN3 pre-mRNA) was less than 6.00 throughout.

Turning to `Cc1c([C@H]2CC=CC[C@@H]2N)sc2c(NCc3cccs3)cc(C#N)nc12` [Compound 246, 2-((1S,6S)-6-aminocyclohex-3-en-1-yl)-3-methyl-7-((thiophen-2-ylmethyl)amino)thieno[3,2-b]pyridine-5-carbonitrile], the negative logarithm of the IC50 (pIC50) in assay [1] was no less than 7.52; in the assay on ATXN3 pre-mRNA, 6.52 to 7.52.

In the case of “2-((1R,2R)-2-aminocyclohexyl)-N-benzyl-5-chloro-3-(prop-1-yn-1-yl)thieno[3,2-b]pyridin-7-amine and 2-((1S,2S)-2-aminocyclohexyl)-N-benzyl-5-chloro-3-(prop-1-yn-1-yl)thieno[3,2-b]pyridin-7-amine [Compound 226]”, the pIC50 (in assay [1]; with ATXN3 pre-mRNA) was no less than 7.52 in each case.

“6-((1S,6S)-6-aminocyclohex-3-en-1-yl-2,2,3,4,5,5-d6)-7-bromo-2-chloro-N-(thiophen-2-ylmethyl)thieno[3,2-d]pyrimidin-4-amine [Compound 183]”: the pIC50 (in assay [1]; in the assay with ATXN3 pre-mRNA) was no less than 7.52 each time.

As for `Cc1c([C@H]2COCC[C@@H]2N)sc2c(NCc3ccccc3)cc(Cl)nc12` [Compound 321, 2-((3R,4S)-4-aminotetrahydro-2H-pyran-3-yl)-N-benzyl-5-chloro-3-methylthieno[3,2-b]pyridin-7-amine], the negative logarithm of the IC50 (pIC50) (in assay [1]; with ATXN3 pre-mRNA) was 6.52 to 7.52 in each case.

As to `N[C@@H]1CCCO[C@H]1c1sc2c(NCc3ccccc3)cc(Cl)nc2c1Cl` [Compound 156, 2-((2R,3R)-3-aminotetrahydro-2H-pyran-2-yl)-N-benzyl-3,5-dichlorothieno[3,2-b]pyridin-7-amine], the pIC50 (in assay [1]; in the assay with ATXN3 pre-mRNA) was less than 6.00 each time.

With `N[C@@H]1CCCCCC[C@@H]1c1cc2nc(Cl)cc(NCc3cccs3)c2s1` [Compound 106, 2-((1S,2R)-2-aminocyclooctyl)-5-chloro-N-(thiophen-2-ylmethyl)thieno[3,2-b]pyridin-7-amine], the pIC50 (in assay [1]; with ATXN3 pre-mRNA) was less than 6.00 each time.

As for `N[C@H]1COCC[C@@H]1c1sc2c(NCc3nccs3)cc(Cl)nc2c1Cl` [Compound 337, 2-((3R,4S)-3-aminotetrahydro-2H-pyran-4-yl)-3,5-dichloro-N-(thiazol-2-ylmethyl)thieno[3,2-b]pyridin-7-amine], the pIC50 (in assay [1]; in the assay with ATXN3 pre-mRNA) was 6.52 to 7.52 in each case.

As to `Cc1c([C@H]2OCCC[C@@H]2N)sc2c(NCc3ccco3)nc(Cl)nc12` [Compound 62, 6-((2S,3S)-3-aminotetrahydro-2H-pyran-2-yl)-2-chloro-N-(furan-2-ylmethyl)-7-methylthieno[3,2-d]pyrimidin-4-amine], the negative-log IC50 (pIC50) in assay [1] is 6.52 to 7.52; in the assay on ATXN3 pre-mRNA it was no less than 7.52.

In the case of `C[C@@H]1C=CC[C@H](c2sc3c(NCc4cccs4)cc(Cl)nc3c2Br)[C@H]1N.C[C@H]1C=CC[C@@H](c2sc3c(NCc4cccs4)cc(Cl)nc3c2Br)[C@@H]1N` (mixture of isomers) [Compound 294, 2-((1R,5S,6R)-6-amino-5-methylcyclohex-3-en-1-yl)-3-bromo-5-chloro-N-(thiophen-2-ylmethyl)thieno[3,2-b]pyridin-7-amine and 2-((1S,5R,6S)-6-amino-5-methylcyclohex-3-en-1-yl)-3-bromo-5-chloro-N-(thiophen-2-ylmethyl)thieno[3,2-b]pyridin-7-amine], the pIC50 (in assay [1]; in the assay with ATXN3 pre-mRNA) was 6.52 to 7.52 throughout.

`Cc1c([C@@H]2OCCC[C@H]2N)sc2c(NCc3ccccc3)nc(Cl)nc12` [Compound 64, 6-((2R,3R)-3-aminotetrahydro-2H-pyran-2-yl)-N-benzyl-2-chloro-7-methylthieno[3,2-d]pyrimidin-4-amine]: the pIC50 (in assay [1]; in the assay with ATXN3 pre-mRNA) was less than 6.00 in each case.

For `Cc1c([C@@H]2OCCC[C@H]2N)sc2c(NCc3ccco3)nc(Cl)nc12` [Compound 61, 6-((2R,3R)-3-aminotetrahydro-2H-pyran-2-yl)-2-chloro-N-(furan-2-ylmethyl)-7-methylthieno[3,2-d]pyrimidin-4-amine], the pIC50 (in assay [1]; with ATXN3 pre-mRNA) was less than 6.00 throughout.

For the compound `CN(Cc1cccs1)c1cc(Cl)nc2c(C#CCCCO)c([C@@H]3CC=CC[C@H]3N)sc12` [Compound 451, 5-(2-((1R,6R)-6-aminocyclohex-3-en-1-yl)-5-chloro-7-(methyl(thiophen-2-ylmethyl)amino)thieno[3,2-b]pyridin-3-yl)pent-4-yn-1-ol], the pIC50 (in assay [1]; with ATXN3 pre-mRNA) was 6.52 to 7.52 each time.
